Converted amounts (≈) assume the structure as drawn.
Tests used:
DENV-2 = assay: Anti-DENV activity assay, DENV RNA level by qRT-PCR in infected Huh-7 cells; format: cell-based, dengue virus 2; conditions: for EC50: DENV2, Huh-7 cells, MOI 0.2, treatment 2 h post infection, RNA at 72 h, read-out: EC50, half maximal effective concentration, anti-DENV-2 activity
Experimental: (§1) Huh-7 cells were cultured in Dulbecco’s modified Eagle’s medium (DMEM) containing 10% fetal bovine serum, 1% non-essential amino acids, and 1% antibiotic-antimycotic in a 5% CO2 at 37 °C. Huh-7 cells were seeded at 24-well plate at density 5 × 10^4 cells/well and infected by DENV infection at a multiplicity of infection (MOI) of 0.2 followed by test compounds treatment 2 h post infection. Total cellular RNA were harvested at 72 h post-infection, and DENV RNA level was analyzed using quantitative real-time reverse-transcription polymerase chain reaction (qRT-PCR) with specific primers against DENV NS5 gene. DENV RNA level was normalized by cellular glyceraldehydes-3-phosphate dehydrogenase (gapdh) mRNA level. 2′-C-methylcytidine (2′CMC) served as positive control. DENV of different serotypes (DENV-1: DN8700828; DENV-2: DN454009A; DENV-3: DN8700829A; DENV-4: S9201818) were obtained from the Centers for Disease Control, Department of Health, Taipei, Taiwan.

Cytotoxicity assay (MTS) = format: cell-based; conditions: human, Huh-7 cells, read-out: CC50, half maximal cytotoxicity concentration
Experimental: Huh-7 cells were seeded onto 96-well plate at a density of 5 × 10^3 cells per well, followed by compound treatment for 72 h. The cell viability was determined using a standard MTS assay (CellTiter 96® Aqueous One Solution Cell Proliferation assay system, Promega, Madison, WI, USA) according to the manufacturer’s instructions.

DENV [1] = test system: DENV; design: method as in PMID 22201648; conditions: cited from earlier work
DENV NS2B/NS3 protease = DENV NS2B/NS3 protease (Dengue virus type 2, UniProt P29990); assay: cell-based
Description: The DENV RdRp activity reporter system was used to determine the anti-DENV RdRp activity as described before. The NS3 protease reporter-based assay was used to determine the anti-DENV protease activity. The Huh-7 cells were transfected with DENV NS2B/NS3 protease reporter vector pEG(∆4B/5)NLuc carrying a specific DENV protease cleavage peptide sequences and the DENV protease expression vector. […] The supernatant was collected to analyze the nano luciferase (NLuc) activity by Nano-Glo® Luciferase Assay System following the manufacturer’s instructions (Promega, Madison, WI, USA).

DENV [2] = format: cell-based, dengue virus; conditions: 10 μM, TCID50 assay
DENV-1 = assay: Anti-DENV activity assay, DENV RNA level by qRT-PCR in infected Huh-7 cells; format: cell-based; conditions: Dengue virus, DENV1, MOI 0.2, 72 h
Experimental: as §1

DENV-4 = assay: as above; format: cell-based; conditions: Dengue virus, DENV4, MOI 0.2, 72 h
Experimental: as §1

DENV-3 = assay: as above; format: cell-based; conditions: Dengue virus, DENV3, MOI 0.2, 72 h
Experimental: as §1

Chain of DENV NS2B/NS3 protease (P29990 1476-2093): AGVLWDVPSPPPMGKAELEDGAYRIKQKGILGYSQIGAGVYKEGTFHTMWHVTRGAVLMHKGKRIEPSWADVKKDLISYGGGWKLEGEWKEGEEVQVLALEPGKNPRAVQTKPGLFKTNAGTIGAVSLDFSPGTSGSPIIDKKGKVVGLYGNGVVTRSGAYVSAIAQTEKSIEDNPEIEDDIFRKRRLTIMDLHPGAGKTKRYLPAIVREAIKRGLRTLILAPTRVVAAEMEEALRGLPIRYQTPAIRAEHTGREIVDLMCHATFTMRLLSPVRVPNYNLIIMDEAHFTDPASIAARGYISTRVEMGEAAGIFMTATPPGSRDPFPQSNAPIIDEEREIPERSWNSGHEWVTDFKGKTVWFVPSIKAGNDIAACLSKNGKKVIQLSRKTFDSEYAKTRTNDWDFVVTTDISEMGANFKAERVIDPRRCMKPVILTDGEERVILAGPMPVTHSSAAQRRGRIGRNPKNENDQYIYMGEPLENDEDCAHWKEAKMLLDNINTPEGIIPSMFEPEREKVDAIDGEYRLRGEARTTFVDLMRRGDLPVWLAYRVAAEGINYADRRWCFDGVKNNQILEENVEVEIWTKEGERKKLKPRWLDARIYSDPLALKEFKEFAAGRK
Chain of DENV NS2B/NS3 protease (P29990 1346-1475): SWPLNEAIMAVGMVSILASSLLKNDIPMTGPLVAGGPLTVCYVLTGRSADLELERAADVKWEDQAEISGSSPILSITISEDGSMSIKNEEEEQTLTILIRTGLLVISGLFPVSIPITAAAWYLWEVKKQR

| Compound | EC50 (DENV-2; Dengue virus) [µM] | CC50 at 72 h (Cytotoxicity assay (MTS)) [µM] | further results |
| --- | --- | --- | --- |
| C[C@@]1(O)[C@H](O)[C@@H](CO)O[C@H]1n1ccc(N)nc1=O [2′CMC, 2′-C-methylcytidine, reference compound] | 13.23 ± 0.07 | 94.8 ± 4.15 | SI, selectivity index, CC50/EC50 (DENV-2; CC50 (Huh-7) / EC50 (DENV-2)): >7.2 |
| C[C@@H](C[C@@H](O)[C@](C)(O)[C@H]1CC[C@@]2(O)C3=CC(=O)[C@@H]4C[C@@H](O)[C@@H](O)C[C@]4(C)[C@H]3CC[C@]12C)C(C)(C)O [Compound 4, 24-epi-makisterone A] | 46.5 ± 0.59 | – | anti-DENV-2 activity in words (DENV-2): weak anti-DENV-2 activities |
| O=c1c(O)c(-c2ccc(O)c(O)c2)oc2cc(O)cc(O)c12 [quercetin] | – | – | IC50, anti-DENV activity (DENV [1]): 35.7 mg/L (≈ 118 µM) |
| CC(C)(O)CCC(O)C(C)(O)C1CCC2(O)C3=CC(=O)C4C(O)CCCC4(C)C3CCC12C (centres unmarked) [Compound 1, palythone A] | 54 ± 2.17 | – | anti-DENV-2 activity in words (DENV-2): weak anti-DENV-2 activities |
| CC(=O)OC1CC(C)(C)C(=C=CC(C)=CC=CC=CC=C(C)C=C2C=C(C=CC34OC3(C)CC(O)CC4(C)C)C(=O)O2)C(C)(O)C1 (centres unmarked) [Compound 9, peridinin] | 4.5 ± 0.46 | 133 ± 3.21 | IC50 (DENV-2; Dengue virus, DENV2, Huh-7, read-out: IC50, antiviral activity (abstract)): 4.5 ± 0.46 mg/L (≈ 7.13 µM); EC50 (DENV NS2B/NS3 protease): 8.5 ± 0.41 µM; decrease of the viral titer as compared to mock-treatment (DENV [2]): 2 ± 0.6 log10; EC50 (DENV-1): 7.62 ± 0.17 µM; EC50 (DENV-4): 6.51 ± 0.3 µM; EC50 (DENV-3): 5.84 ± 0.19 µM |
| CC(C)(O)CC[C@@H](O)[C@](C)(O)[C@H]1CC[C@@]2(O)C3=CC(=O)[C@@H]4CC[C@@H](O)C[C@]4(C)[C@H]3CC[C@]12C [Compound 3, 3-deoxy-20-hydroxyecdysone] | > 100 | > 200 | – |
| CC(=O)O[C@H]1C[C@@]2(C)[C@@H](C[C@H]1O)C(=O)C=C1[C@@H]2CC[C@]2(C)[C@@H]([C@@](C)(O)[C@H](O)CCC(C)(C)O)CC[C@@]12O [Compound 2, 20-hydroxyecdysone 2-acetate] | > 100 | > 200 | – |

Reference: publication PMC4999912, “Anti-Dengue Virus Constituents from Formosan Zoanthid Palythoa mutuki” (Marine Drugs, 2016)
